Assay results from publication PMC11452715, “Pharmacokinetic and pharmacodynamic evaluation of various vasopressin doses and routes of administration in a neonatal piglet model” (Scientific Reports, 2024).

How the values were obtained:
[1] = tested on: adults with out-of-hospital cardiac arrest; design: method as in PMID 14711909; conditions: adults with asystolic arrest, cited from earlier work; for rate of survival to hospital admission: p = 0.02; for rate of survival to discharge: p = 0.04
Source text: (§1) Vasopressin, an antidiuretic hormone, might be an alternative to epinephrine, as its efficacy is not impaired during metabolic or respiratory acidosis[3],[4],[9].

[2] = tested on: patients < 18 years of age; design: method as in PMID 21926666; conditions: vasopressin (0.8 IU/kg) after an initial epinephrine dose (n = 10) vs ≥ 2 doses of epinephrine; cited from earlier work
Source text: as §1

[3] = tested on: pediatric patients; conditions: 0.4IU/kg/dose IV as rescue therapy; cited from earlier work
Source text: Vasopressin, an antidiuretic hormone, might be an alternative to epinephrine, as its efficacy is not impaired during metabolic or respiratory acidosis[3],[4],[9]. […] Similarly, in a case series of four pediatric patients’ vasopressin at 0.4IU/kg/dose IV administered as rescue thera ...

[4] = tested on: neonatal piglets; assay: Hemodynamic and cardiac function parameters after vasopressin administration in healthy neonatal piglets; assay type: in vivo, piglet; conditions: for ejection fraction / cardiac output: one minute after drug administration, n = 5
Source text: Piglets were instrumented as previously described with modifications[15]–[17]. Following the induction of anaesthesia using isoflurane, piglets were intubated via a tracheostomy, and pressure-controlled ventilation (Sechrist Infant Ventilator Model IV-100; Sechrist Industries, Anaheim, California) was commenced at a respiratory rate of 16–20 breaths/min and pressure of 20/5 cmH2O. Oxygen saturation was kept within 90–100%, glucose level and hydration was maintained with an intravenous infusion of 5% dextrose at 10 mL/kg/hr. During the experiment anaesthesia was maintained with intravenous propofol 5–10 mg/kg/hr and morphine 0.1 mg/kg/hr. Additional doses of propofol (1–2 mg/kg) and morphine (0.05–0.1 mg/kg) were also given as needed. The piglet’s body temperature was maintained within a normal porcine temperature range of 38.5–39.5 °C using an overhead warmer and a heating pad.
A 5-French Argyle® (Klein-Baker Medical Inc. San Antonio, TX) double-lumen catheter was inserted via the right femoral vein for administration of fluids and medications. A 5-French Argyle® single-lumen catheter was inserted above the right renal artery via the femoral artery for continuous arterial blood pressure monitoring in addition to arterial blood gas measurements. The right common carotid artery was also exposed and encircled with a real-time ultrasonic flow probe (2 mm; Transonic Systems Inc., Ithica, NY) to measure cerebral blood flow[15]–[17]. A Millar® catheter (MPVS Ultra1, ADInstruments, Houston, TX) was inserted into the left ventricle via the left common carotid artery for continuous measurement of stroke volume, ejection fraction, end-diastolic and -systolic volumes, left ventricular pressure, and left ventricular contractile function (dp/dtmax, dp/dtmin)^19,20.
Piglets were placed in supine position and allowed to recover from surgical instrumentation until baseline hemodynamic measures were stable (minimum of one hour). Ventilator rate was adjusted to keep the partial arterial CO2 between 35 and 45 mmHg as determined by periodic arterial blood gas analysis. Mean systemic arterial pressure (MAP), systemic systolic arterial pressure, heart rate, and percutaneous oxygen saturation were continuously measured and recorded throughout the experiment with a Hewlett Packard 78833B monitor (Hewlett Packard Co., Palo Alto, CA)[15]–[17].
(§2) Piglets were randomized into four routes and various vasopressin doses: (1) IV vasopressin (0.4IU/kg; n = 5, control), (2) IO vasopressin (n = 5/dose; 0.2IU/kg, 0.4IU/kg, or 0.8IU/kg), (3) ETT vasopressin (n = 5/dose; 4IU/kg, 8IU/kg, or 16IU/kg), (4) IN vasopressin (n = 3/dose; 8IU/kg, 16IU/kg, or 32IU/kg). In all groups, a 3mL saline bolus was administered immediately after the vasopressin dose[20],[21].
(§3) Preliminary tests on a few piglets were conducted to determine the optimal ETT vasopressin doses. […] All piglets, regardless of randomization, underwent insertion of an intraosseous needle during surgical instrumentation to ensure each piglet underwent similar surgical procedures. Arterial blood was collected before vasopressin administration (baseline), 1, 2, 3, 4, 5, and 10 min after vasopressin administration. Following final collection of blood, piglets were euthanized with an intravenous overdose of sodium pentobarbital (100 mg/kg).
Demographics of study piglets were recorded. Transonic flow probes, heart rate, and pressure transducer outputs, and Millar catheter were digitized and recorded with LabChart® programming software (ADInstruments, Houston, TX). Blood samples were collected and centrifuged at 11,000 rpm for five minutes, plasma was then separated and stored at -80 °C. Concentrations of vasopressin were quantified using commercially available ELISA kits (K049-H1, Arbor Assays, Ann Arbor, Michigan, USA). Analysis of pharmacokinetic parameters was performed with the Non-Compartmental Analysis program of the SimBiology Model Analyzer app within MATLAB (MATLAB ver. R2023b, MathWorks, Natick, MA, USA). […]

[5] = Plasma vasopressin concentrations (ELISA) and non-compartmental pharmacokinetic analysis in neonatal piglets; assay type: in vivo, piglet; conditions: for plasma vasopressin concentrations compared to IV vasopressin / plasma concentrations compared to IV vasopressin / Cmax: ELISA; for Tmax compared to IV vasopressin: p < 0.05; for Cmax: pig, plasma, mean (SD), SD
Method: as §2, §3
Demographics of study piglets were recorded. Transonic flow probes, heart rate, and pressure transducer outputs, and Millar catheter were digitized and recorded with LabChart® programming software (ADInstruments, Houston, TX). Blood samples were collected and centrifuged at 11,000 rpm for five minutes, plasma was then separated and stored at -80 °C. Concentrations of vasopressin were quantified using commercially available ELISA kits (K049-H1, Arbor Assays, Ann Arbor, Michigan, USA). Analysis of pharmacokinetic parameters was performed with the Non-Compartmental Analysis program of the SimBiology Model Analyzer app within MATLAB (MATLAB ver. R2023b, MathWorks, Natick, MA, USA).
The data was tested for normality (Shapiro-Wilk and Kolmogorov-Smirnov test) and compared using ANOVA for repeated measures using Tukey post-test for parametric and Dunn’s test for nonparametric comparisons of continuous variables, and Fisher’s exact test for categorical variables. The data are presented as mean (standard deviation - SD) for normally distributed continuous variables and median (interquartile range - IQR) when the distribution was skewed. P-values are 2-sided and p < 0.05 was considered statistically significant. Statistical analyses were performed with SigmaPlot (Systat Software Inc, San Jose, USA).

[6] = 0.8IU/kg IV vasopressin, four hours after resuscitation; cited from earlier work
Source text: This may result from the non-statistically significant lower baseline ejection fraction in 0.4IU/kg IO vasopressin piglets compared to 0.8IU/kg IO vasopressin piglets (Table 1).

[7] = 0.4IU/kg IO vasopressin, vs baseline
[8] = 0.4IU/kg IV vasopressin (control)

CNC[C@H](O)c1ccc(O)c(O)c1 [epinephrine]
rate of survival to hospital admission [1]: 20%
rate of survival to discharge [1]: 2%
24 h survival [2]: 30%

NC(=O)CC[C@@H]1NC(=O)[C@H](Cc2ccccc2)NC(=O)[C@H](Cc2ccc(O)cc2)NC(=O)[C@@H](N)CSSC[C@@H](C(=O)N2CCC[C@H]2C(=O)N[C@@H](CCCN=C(N)N)C(=O)NCC(N)=O)NC(=O)[C@H](CC(N)=O)NC1=O [vasopressin]
achieved ROSC [3]: 3/4
survived > 24 h [3]: 2/4
survived to hospital discharge [3]: 1/4
rate of survival to hospital admission [1]: 29%
rate of survival to discharge [1]: 5%
24 h survival [2]: 80%
time after drug administration for which cardiac output significantly decreased ([4]; 0.2IU/kg IO vasopressin): one
carotid blood flow compared to IV vasopressin ([4]; 0.2IU/kg IO vasopressin, for four minutes, vs 0.4IU/kg IV): significantly higher
time for which MAP significantly increased ([4]; 0.2IU/kg IO vasopressin, vs baseline): two minutes
time post-drug administration for which carotid blood flow was decreased ([4]; 0.2IU/kg IO vasopressin, comparable to baseline from three to 10 min): two
time after drug administration for which cardiac output significantly decreased ([4]; 0.4IU/kg IO vasopressin): two
ejection fraction ([4]; 0.4IU/kg IO vasopressin, p = 0.042 vs IV): 8.4 (7.7–9.8) %
time for which MAP significantly increased [4, 7]: five minutes
time post-drug administration for which carotid blood flow significantly decreased [4, 7]: five
cardiac output [4, 8]: 193.1 (170.3–365.8) mL/kg/min
ejection fraction [4, 8]: 23.3 (22.5–32.6) %
time for which MAP significantly increased ([4]; 0.4IU/kg IV vasopressin, vs baseline): five minutes
MAP and dP/dT minimum, IV vasopressin compared to all IN vasopressin doses ([4]; 0.4IU/kg IV vs 8, 16, 32IU/kg IN): significantly higher
time for which MAP significantly increased ([4]; 0.8IU/kg IO vasopressin, vs baseline): five minutes
dP/dT minimum compared to IV vasopressin ([4]; 4IU/kg ETT vasopressin vs 0.4IU/kg IV): significantly lower
cardiac output ([4]; 4IU/kg ETT vasopressin, p = 0.045 vs IV): 466 (394–558) mL/kg/min
hemodynamic response ([4]; 4IU/kg IN vasopressin, preliminary, doses then increased): lack of hemodynamic response
carotid blood flow, IN vasopressin doses compared to IV vasopressin ([4]; 8, 16, 32IU/kg IN vs 0.4IU/kg IV): higher
dP/dT minimum compared to IV vasopressin ([4]; 16IU/kg ETT vasopressin vs 0.4IU/kg IV): significantly lower
heart rate, dP/dT maximum or minimum compared to baseline values or IV vasopressin ([4]; any IO-administered vasopressin dose (0.2, 0.4, 0.8IU/kg)): no significant changes
changes from baseline in heart rate, carotid blood flow, cardiac output, ejection fraction, stroke volume, dP/dT maximum or minimum ([4]; any doses within the IN route (8, 16, 32IU/kg)): no changes
changes from baseline in heart rate, carotid blood flow, cardiac output, ejection fraction, stroke volume, dP/dT maximum or minimum ([4]; any vasopressin dose administered endotracheally (4, 8, 16IU/kg)): no changes from baseline
plasma vasopressin concentrations compared to IV vasopressin ([5]; 4IU/kg ETT vasopressin, two minutes after drug administration): significantly lower
plasma vasopressin concentrations compared to IV vasopressin ([5]; 8IU/kg ETT vasopressin, three minutes after drug administration): significantly lower
plasma concentrations compared to IV vasopressin ([5]; 8IU/kg IN vasopressin, 1-10 min): significantly lower plasma concentrations at all measured time points
plasma vasopressin concentrations compared to IV vasopressin ([5]; 16IU/kg ETT vasopressin, five minutes after drug administration): significantly lower
plasma concentrations compared to IV vasopressin ([5]; 16IU/kg IN vasopressin, 1-10 min): significantly lower plasma concentrations at all measured time points
plasma concentrations compared to IV vasopressin ([5]; 32IU/kg IN vasopressin, 10-minutes after drug administration): comparable
Tmax compared to IV vasopressin ([5]; 32IU/kg IN vasopressin): significantly higher
Tmax compared to IV vasopressin ([5]; all ETT vasopressin doses (4, 8, 16IU/kg)): significantly higher
plasma vasopressin concentrations compared to IV vasopressin ([5]; any IO vasopressin dose (0.2, 0.4, or 0.8IU/kg) vs 0.4IU/kg IV): no differences
pharmacokinetic parameters (Cmax, AUC, Tmax, clearance, half-life), IV vs IO ([5]; any IO vasopressin dose vs 0.4IU/kg IV): comparable
Cmax ([5]; endotracheal, 4IU/kg ETT vasopressin, n = 5, p < 0.0001 vs IV): 0.958 ng/mL
Cmax ([5]; inhaled or intranasal, 8IU/kg IN vasopressin, n = 3, p < 0.0001 vs IV): 0.384 ng/mL
Cmax ([5]; inhaled or intranasal, 16IU/kg IN vasopressin, n = 3, p < 0.0001 vs IV): 0.399 ng/mL
Cmax ([5]; 0.4IU/kg IV vasopressin (control), n = 5): 2.25 ng/mL
base excess and lactate concentrations compared to 0.4IU/kg IV vasopressin [6]: significantly higher
